In data set [1] the test system is Mycobacterium tuberculosis. The experiment in a line: Antitubercular activity against Mycobacterium tuberculosis H37Rv assessed as inhibition of bacterial growth incubated for 6 days by Alamar Blue based assay. It is filed as functional. The note with it: 144 h, time 6 day. (In general: The colour change of resazurin is a common sign of viable cells or microbes.)

Data set [2] in a line: Solubility of the compound at 5 mM at pH 1.2 by HPLC analysis. In kind it is physicochemical. The note with it: buffer.
The nature of data set [3]: Solubility of the compound at 5 mM at pH 2.2 by HPLC analysis. In kind it is physicochemical. The note with it: buffer.
Data set [4] is described as follows: Solubility of the compound at 5 mM at pH 4.5 by HPLC analysis. In kind it is physicochemical. The note with it: buffer.
A short description of data set [5]: Solubility of the compound at 5 mM at pH 7.4 by HPLC analysis. It is filed as physicochemical. The note with it: buffer.
The nature of data set [6]: Solubility of the compound at 5 mM at pH 10.2 by HPLC analysis. In kind it is physicochemical. The note with it: buffer.
The nature of data set [7]: Metabolic stability in mouse liver microsomes at 50 uM measured after 30 mins by LC-MS/MS analysis. In kind it is ADME, Microsome. The note with it: read-out: Stability.
A short description of data set [8]: Metabolic stability in human liver microsomes at 50 uM measured after 30 mins by LC-MS/MS analysis. In kind it is ADME, Microsome. The note with it: read-out: Stability.
Data set [9] in a line: Metabolic stability in human plasma at 50 uM measured after 60 mins by LC-MS/MS analysis. It is filed as ADME, cell-free. The note with it: read-out: Stability.
The nature of data set [10]: Protein binding in human plasma at 150 uM by equilibrium dialysis method. In kind it is ADME, cell-free. The note with it: read-out: PPB (converted). (Equilibrium dialysis compares concentrations on both sides of a semipermeable membrane.)
The test system of data set [11] is HEK293. The experiment in a line: Cytotoxicity against HEK293 cells assessed as reduction in cell viability at >45 uM measured after 24 hrs by MTT assay. In kind it is toxicity, cell-based. The note with it: human, hek293, 24 h. In general terms: Formazan colour is commonly taken as a measure of viable cells.
The nature of data set [12]: Selectivity index, ratio of IC50 for cytotoxicity against HEK293 cells to MIC for antitubercular activity against Mycobacterium tuberculosis H37Rv. In kind it is toxicity, cell-based. The note with it: human, read-out: Ratio IC50.
The nature of data set [13]: Selectivity index, ratio of IC50 for cytotoxicity against mouse primary astrocytes cells to MIC for antitubercular activity against Mycobacterium tuberculosis H37Rv. It is filed as toxicity, cell-based. The note with it: read-out: Ratio IC50.
Data set [14] can be described thus: Cytotoxicity against mouse primary astrocytes assessed as reduction in cell viability measured after 24 hrs by MTT assay. In kind it is toxicity, cell-based, Astrocyte.
Data set [15] deals with Mycobacterium tuberculosis. Nature of the data set: Antitubercular activity against Mycobacterium tuberculosis H37Rv. In kind it is functional.

Each structure is given as a SMILES string. In brackets after ≈: the same amount, converted by molar mass. Bounds are passed on as bounds.

Regarding `Cc1c(CN2CCN(C)CC2)cc(-c2ccc(Cl)cc2)n1-c1ccc(Cl)cc1`, in data set [1], the MIC is 1.7 µM (≈ 0.704 µg/mL). Moreover, the solubility at 5000 µM was 45.2 µM (≈ 18.7 µg/mL) in data set [2]; 42.2 µM (≈ 17.5 µg/mL) in data set [3]; 36.7 µM (≈ 15.2 µg/mL) in data set [4]; 26.7 µM (≈ 11.1 µg/mL) in [5]; 5.38 µM (≈ 2.23 µg/mL) in data set [6]. The remaining at 0.5 h, 50 µM in data set [7] came out at 62.4%; in data set [8] it was 79.8%.
Turning to `Cc1c(CN2CC[Si](C)(C)CC2)cc(-c2ccc(Cl)cc2)n1-c1ccccc1`, the MIC in data set [1] was found to be 0.1 µM (≈ 0.0409 µg/mL).
Turning to `Cc1ccc(-c2cc(CN3CC[Si](C)(C)CC3)c(C)n2-c2ccc(F)cc2)cc1`, the MIC in [1] is 0.1 µM (≈ 0.0407 µg/mL). Also, the solubility at 5000 µM in data set [2] came out at 43.7 µM (≈ 17.8 µg/mL); in [3], 42.1 µM (≈ 17.1 µg/mL); in data set [4], 42.6 µM (≈ 17.3 µg/mL); in [5], 26.8 µM (≈ 10.9 µg/mL); in [6] it was 3.13 µM (≈ 1.27 µg/mL). For the same compound, the remaining at 1 h, 50 µM in data set [9] is 96.9%. Further, the values for the remaining at 0.5 h, 50 µM in [7] and in data set [8] were 45.1% and 36.4%, respectively. In data set [10], the fraction unbound at 150 µM was 0.0009. Besides, the Activity result in data set [11] is recorded as “Non-Toxic”. Besides, the selectivity ratio in data set [12] and in data set [13] was greater than 250 each time. In data set [14], the IC50 at 24 h is greater than 20 µM.
`COc1ccc(-c2cc(CN3CC[Si](C)(C)CC3)c(C)n2-c2ccc(F)cc2)cc1`: in [1], the MIC is 1.5 µM (≈ 0.634 µg/mL).
As for `CCc1ccc(-n2c(-c3ccc(Cl)cc3)cc(CN3CC[Si](C)(C)CC3)c2C)cc1`, the MIC in [1] was found to be 0.1 µM (≈ 0.0437 µg/mL). The solubility at 5000 µM in data set [2] was determined as 9.86 µM (≈ 4.31 µg/mL); in data set [3], 37.2 µM (≈ 16.3 µg/mL); in [4], 32.6 µM (≈ 14.3 µg/mL); in data set [5] it was 1.19 µM (≈ 0.52 µg/mL); in data set [6], 12.9 µM (≈ 5.65 µg/mL). Moreover, in data set [9], the remaining at 1 h, 50 µM amounted to 95.7%. Also, the values for the remaining at 0.5 h, 50 µM in data set [7] and in data set [8] were 75.5% and 60.8%, respectively. Further, the fraction unbound at 150 µM in [10] is 0.0002. Further, the Activity result in data set [11] was “Non-Toxic”. Further, the selectivity ratio in data set [12] and in data set [13] was greater than 250 in each case. Further, in data set [14], the IC50 at 24 h is greater than 20 µM.
In the case of `CSc1ccc(-c2c(CN3CC[Si](C)(C)CC3)cc(C)n2-c2ccc(F)cc2)cc1`, the MIC in data set [1] came to 3.6 µM (≈ 1.58 µg/mL).
Regarding `C[Si]1(C)CCN(Cc2cc(-c3ccc(Cl)cc3)n(-c3ccc(Cl)cc3)n2)CC1`, it took 0.07 µM (≈ 0.0301 µg/mL) to inhibit growth in data set [15] (MIC).
Take `NNC(=O)c1ccncc1` [ISONIAZID]: the MIC in data set [1] stood at 2.2 µM (≈ 0.302 µg/mL).
The same measure, in the same setting: the same measure for `CCc1ccc(-n2c(C)cc(CN3CC[Si](C)(C)CC3)c2-c2ccc(OC)cc2)cc1`: 23.1 µM (≈ 10 µg/mL).
The same measure, in the same setting: the figure for `CCc1ccc(-c2cc(CN3CC[Si](C)(C)CC3)c(C)n2-c2ccc(OC)cc2)cc1` is 0.2 µM (≈ 0.0865 µg/mL).
`CCc1ccc(-n2c(-c3ccc(OC)cc3)cc(CN3CC[Si](C)(C)CC3)c2C)cc1`: the MIC in [1] amounted to 1.5 µM (≈ 0.649 µg/mL).
For `Cc1c(CN2CC[Si](C)(C)CC2)cc(-c2ccc(Cl)cc2)n1-c1ccc(Cl)cc1`, the MIC in data set [1] was found to be 0.1 µM (≈ 0.0443 µg/mL). Further, the solubility at 5000 µM came out at 38.8 µM (≈ 17.2 µg/mL) in [2], 39.1 µM (≈ 17.3 µg/mL) in data set [3], 36.7 µM (≈ 16.3 µg/mL) in data set [4] and 4.73 µM (≈ 2.1 µg/mL) in [5]. The remaining at 1 h, 50 µM in data set [9] is 99.4%. Further, the remaining at 0.5 h, 50 µM in [7] turned out to be 86.3%; in data set [8], 56.7%. In [10], the fraction unbound at 150 µM is 0.0002. Besides, the Activity entry in data set [11] was “Non-Toxic”. Besides, the selectivity ratio in data set [12] and in data set [13] was greater than 250 each time. Moreover, in [14], the IC50 at 24 h was greater than 20 µM.
Consider `Cc1c(C(=O)NN2CCCCC2)nn(-c2ccc(Cl)cc2Cl)c1-c1ccc(Cl)cc1` [RIMONABANT], for which 54 µM (≈ 25 µg/mL) was the least that counted as inhibitory in [15] (MIC).
With `COc1ccc(-c2c(CN3CC[Si](C)(C)CC3)cc(C)n2-c2ccc(F)cc2)cc1`, in data set [1], the MIC was determined as 7.4 µM (≈ 3.13 µg/mL).
`CSc1ccc(-c2cc(CN3CC[Si](C)(C)CC3)c(C)n2-c2ccc(F)cc2)cc1`: the MIC in data set [1] came out at 0.2 µM (≈ 0.0877 µg/mL).

Usually MIC stands for the least concentration at which growth counts as inhibited. In general, solubility refers to the concentration that dissolves in the medium under given conditions. Usually IC50 stands for the concentration needed to halve the response being measured.
